Experimental data: patent publication US20240252677A1, “ONE-COMPONENT DELIVERY SYSTEM FOR NUCLEIC ACIDS” (The Trustees of the University of Pennsylvania, priority 2021, published 2024)

Assays:
lung = assay: In vivo mRNA delivery, IVIS imaging of organs: lung; set-up: species or system mice; key to Organs with luminescence: lung: strong: Strong meant the luminescence intensity in that organ was relatively high, compared to other organs; weak: Weak meant the luminescence intensity in that organ was relatively low, compared to other organs; conditions: mice; for Organs with luminescence: lung: Table 17, IVIS, 4-6 h after injection, intensity relative to other organs; for activity in lung (in words): Luc-mRNA DNPs
Procedure: (§1) The exposure time was 1 min.
(§2) Tissue luminescence signal was measured on the IVIS imaging system using an exposure time of 60 seconds using medium binning (binning=8) to ensure that the signal obtained was within operative detection range. […] Bioluminescence imaging was performed as described above.
Tissue luminescence signal was measured on the IVIS imaging system using a certain exposure time (60, 30 or 15 seconds) and medium binning (binning=8) to ensure that the signal obtained was within operative detection range.

[1] = Stability of DNPs by DLS after storage at 5° C.; format: physicochemical; set-up: key: Excellent: the original sizes and distribution types remained almost the same after storage; Good: the original sizes and distribution types changed slightly (size difference was less than 100 nm) or the original size remained almost the same but the DLS curve showed more size distributions after storage
Procedure: The stability of the DNPs as assayed by DLS. All the samples are prepared in acetate buffer. The stabilities of the constructs were ranked: Excellent (in bold)—the original sizes and distribution remains almost the same after storage; Good—the original relatively big sizes became smaller or broad size distribution became narrower; Not stable—the original relatively big sizes or broad size distribution remained almost the similar level, or the original relatively small sizes became bigger or narrow size distribution became broader.

HEK293T cells = assay: In vitro Luc-mRNA transfection, luciferase luminescence expression in HEK293T cells; format: cell-based, human; set-up: unit not given here; conditions: Table 16; HEK 293T cells, 125 ng/well, n=3
In short: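 HEK293T cells were transfected with nucleoside-modified firefly luciferase mRNA at 125 ng/well delivered in the test particles. TransIT and MC3-based LNPs at equal mRNA dose served as comparators. After 24 h (18-20 h in some runs) at 37° C the cells were lysed, and luciferase luminescence was read on a luminometer, in triplicate.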

BALB/c mice = assay: In vivo mRNA delivery in mice with DNPs, whole-body bioluminescence imaging (IVIS)
Procedure: as §1
Luminescence characterization for in vivo transfection experiments employed bioluminescence imaging with an IVIS Spectrum imaging system (PerkinElmer, Waltham, MA). Mice were anesthetized with 3% of isoflurane (Piramal Healthcare Limited) and intraperitoneally (i.p.) administered with D-luciferin (Regis Technologies) at a dose of 150 mg/kg of body weight. Ten minutes post administration of D-luciferin, mice were placed on the imaging platform while being maintained on isoflurane via a nose cone and imaged using an exposure time of 60 seconds. […] To quantify luminescent flux, an oval ROI was placed over each organ of interest and analyzed.
as §2
Luminescence Characterization for In Vivo Transfection Experiments: bioluminescence imaging was performed with an IVIS Spectrum imaging system (PerkinElmer, Waltham, MA).

SMILES | Organs with luminescence: lung (lung) | Luminescence (HEK293T cells) | In vivo activity (total flux, p/s) (BALB/c mice; Table 19, nonsymmetric IAJDs) | further results
CCCCCCCCCCCCOc1cc(COC(=O)c2cc(OCCOCCOCCCC(=O)CCCN3CCCCC3)c(OCCOCCOCCOCc3ccccc3)c(OCCOCCOCCOC(=O)CCCN3CCCCC3)c2)cc(OCCCCCCCCCCCC)c1 [IAJD 110] | Lung (strong) | 47 | – | activity in lung (in words) (lung): very high activity to lung; Ranking of stability ([1]; after 75 days at 5° C.): Excellent
CCCCCCCCCCCOc1cc(COC(=O)c2cc(OCCOCCOCCCC(=O)CCCN3CCCCC3)c(OCCOCCOCCOCc3ccccc3)c(OCCOCCOCCOC(=O)CCCN3CCCCC3)c2)cc(OCCCCCCCCCCC)c1 [IAJD 111] | Lung (strong), | 41 | – | activity in lung (in words) (lung): very high activity to lung; Ranking of stability ([1]; after 75 days at 5° C.): Excellent
CCCCCCCCCCCOc1cc(COC(=O)CCCN2CCN(CCO)CC2)cc(OCCCCCCCC)c1 [IAJD 113, 3-(Octyloxy)-5-(undecyloxy)benzyl 4-(4-(2-hydroxyethyl)piperazin-1-yl)butanoate] | – | 78,118 | 1.70 × 10^7 p/s | Ranking of stability ([1]; after 70 days at 5° C.): Excellent
CCCCCCCCCCCOc1cc(COC(=O)CCCN2CCN(C)CC2)cc(OCCCCCCCCCC)c1 [IAJD 114, 3-(Decyloxy)-5-(undecyloxy)benzyl 4-(4-methylpiperazin-1-yl)butanoate] | Lung (weak), | 1,580 | 3.56 × 10^6 p/s | Ranking of stability ([1]; after 75 days at 5° C.): Good
CCCCCCCCCCCOc1cc(COC(=O)CCCN2CCN(CCO)CC2)cc(OCCCCCCCCCC)c1 [IAJD 115, 3-(Decyloxy)-5-(undecyloxy)benzyl 4-(4-(2-hydroxyethyl)piperazin-1-yl)butanoate] | Lung (weak), | 390,021 | 4.59 × 10^6 p/s | Ranking of stability ([1]; after 70 days at 5° C.): Excellent
CCCCCCCCCCCCCOc1cc(COC(=O)CCCN2CCN(C)CC2)cc(OCCCCCCCCCCC)c1 [IAJD 116, 3-(Tridecyloxy)-5-(undecyloxy)benzyl 4-(4-methylpiperazin-1-yl)butanoate] | Lung (weak), | 192,213 | 2.38 × 10^7 p/s | Ranking of stability ([1]; after 62 days at 5° C.): Excellent
CCCCCCCCCCCCCOc1cc(COC(=O)CCCN2CCN(CCO)CC2)cc(OCCCCCCCCCCC)c1 [IAJD 117, 3-(Tridecyloxy)-5-(undecyloxy)benzyl 4-(4-(2-hydroxyethyl)piperazin-1-yl)butanoate] | Lung (weak), | 516,522 | 8.64 × 10^6 p/s | Ranking of stability ([1]; after 70 days at 5° C.): Excellent
CCCCCCCCCCCCCCCOc1cc(COC(=O)CCCN2CCN(C)CC2)cc(OCCCCCCCCCCC)c1 [IAJD 118, 3-(Pentadecyloxy)-5-(undecyloxy)benzyl 4-(4-methylpiperazin-1-yl)butanoate] | Lung (weak), | 568,354 | 1.46 × 10^7 p/s | Ranking of stability ([1]; after 75 days at 5° C.): Excellent
CCCCCCCCCCCCCCCOc1cc(COC(=O)CCCN2CCN(CCO)CC2)cc(OCCCCCCCCCCC)c1 [IAJD 119, 3-(Pentadecyloxy)-5-(undecyloxy)benzyl 4-(4-(2-hydroxyethyl)piperazin-1-yl)butanoate] | Lung (weak), | 565,906 | 8.22 × 10^7 p/s | Ranking of stability ([1]; after 62 days at 5° C.): Good
CCCCCCCCCCCCCCCCOc1cc(COC(=O)CCCN2CCN(CCO)CC2)cc(OCCCCCCCCCCC)c1 [IAJD 120, 3-(Hexadecyloxy)-5-(undecyloxy)benzyl 4-(4-(2-hydroxyethyl)piperazin-1-yl)butanoate] | – | 443,836 | 2.48 × 10^7 p/s | Ranking of stability ([1]; after 70 days at 5° C.): Excellent
CCCCCCCCCCCOc1cc(COC(=O)CCCN2CCN(CCO)CC2)cc(OCCCCCCCCC)c1 [IAJD 122, 3-(Nonyloxy)-5-(undecyloxy)benzyl 4-(4-(2-hydroxyethyl)piperazin-1-yl)butanoate] | Lung (weak), | 55,101 | 2.50 × 10^7 p/s | Ranking of stability ([1]; after 62 days at 5° C.): Excellent
CCCCCCCCCCCCOc1cc(COC(=O)CCCN2CCN(CCO)CC2)cc(OCCCCCCCCCCC)c1 [IAJD 124, 3-(Dodecyloxy)-5-(undecyloxy)benzyl 4-(4-(2-hydroxyethyl)piperazin-1-yl)butanoate] | Lung (weak), | 145,115 | 3.77 × 10^7 p/s | Ranking of stability ([1]; after 62 days at 5° C.): Good
CCCCCCCCCCCCCCOc1cc(COC(=O)CCCN2CCN(CCO)CC2)cc(OCCCCCCCCCCC)c1 [IAJD 125, 3-(Tetradecyloxy)-5-(undecyloxy)benzyl 4-(4-(2-hydroxyethyl)piperazin-1-yl)butanoate] | Lung (weak), | 119,405 | 2.15 × 10^8 p/s | Ranking of stability ([1]; after 62 days at 5° C.): Excellent; In vivo activity (total flux, p/s) (BALB/c mice; Table 20, nonsymmetric IAJDs and MC3-Luc-mRNA): 2.15 × 10^8 p/s
CCCCCCCCCCCCCCCCCOc1cc(COC(=O)CCCN2CCN(C)CC2)cc(OCCCCCCCCCCC)c1 [IAJD 126, 3-(Heptadecyloxy)-5-(undecyloxy)benzyl 4-(4-methylpiperazin-1-yl)butanoate] | Lung (weak), | 675 | 3.21 × 10^7 p/s | Ranking of stability ([1]; after 70 days at 5° C.): Excellent
CCCCCCCCCCCCCCCCCOc1cc(COC(=O)CCCN2CCN(CCO)CC2)cc(OCCCCCCCCCCC)c1 [IAJD 127, 3-(Heptadecyloxy)-5-(undecyloxy)benzyl 4-(4-(2-hydroxyethyl)piperazin-1-yl)butanoate] | Lung (weak), | 147,731 | 1.07 × 10^8 p/s | Ranking of stability ([1]; after 62 days at 5° C.): Good
CCCCCCCCCCCCCCOc1cc(CNC(=O)CCCN2CCN(C)CC2)cc(OCCCCCCCCCCC)c1 [IAJD 133, 4-(4-Methylpiperazin-1-yl)-N-(3-(tetradecyloxy)-5-(undecyloxy)benzyl)butanamide] | Lung (strong), | 107,307 | – | Ranking of stability ([1]; after 42 days at 5° C.): Excellent
CCCCCCCCCCCCCCCCCOc1cc(COC(=O)CCCN2CCN(CCO)CC2)cc(OCCCCCCCCCCCCCCC)c1 [IAJD 152, 3-(Heptadecyloxy)-5-(pentadecyloxy)benzyl 4-(4-(2-hydroxyethyl)piperazin-1-yl)butanoate] | – | 88,202 | 1.97 × 10^7 p/s | Ranking of stability ([1]; after 35 days at 5° C.): Excellent
CCCCCCCCCCCOc1cc(COC(=O)c2cc(OCCOCCOCCCC(=O)CCCN3CCCCC3)c(OCCOCCOCCOCc3ccccc3)c(OCCOCCOCCOC(=O)CCCN3CCCCC3)c2)cc(OCC(CC)CCCC)c1 (centres unmarked) [IAJD 155] | Lung (strong), | 74 | – | Ranking of stability ([1]; after 19 days at 5° C.): Excellent
CCCCCCCCCCCCCCOc1cc(COC(=O)c2cc(OCCOCCOCCCC(=O)CCCN3CCCCC3)c(OCCOCCOCCOCc3ccccc3)c(OCCOCCOCCOC(=O)CCCN3CCCCC3)c2)cc(OCCCCCCCCCCC)c1 [IAJD 156] | Lung (strong) | 59 | – | Ranking of stability ([1]; after 19 days at 5° C.): Excellent
CCCCCCCCCCCCCCCOc1cc(COC(=O)c2cc(OCCOCCOCCCC(=O)CCCN3CCCCC3)c(OCCOCCOCCOCc3ccccc3)c(OCCOCCOCCOC(=O)CCCN3CCCCC3)c2)cc(OCCCCCCCCCCC)c1 [IAJD 157] | Lung (strong) | 47 | – | Ranking of stability ([1]; after 19 days at 5° C.): Excellent
CCCCCCCCCCCCCCCCCOc1cc(COC(=O)c2cc(OCCOCCOCCCC(=O)CCCN3CCCCC3)c(OCCOCCOCCOCc3ccccc3)c(OCCOCCOCCOC(=O)CCCN3CCCCC3)c2)cc(OCCCCCCCCCCC)c1 [IAJD 158] | Lung (strong) | 83 | – | Ranking of stability ([1]; after 19 days at 5° C.): Excellent
